Data as given in patent publication US5583227A, “Antiulcer compounds having a substituted alkynyl or quinoxaline nucleus and methods of making thereof” (Mochida Pharmaceutical Co. Ltd., priority 1994, dated 1996).
pIC50: −log10 of the molar value. Like-named read-outs stand apart in the source and are kept apart here.

Key:
Acute toxicity test = details: mouse, in vivo; oral, mice, one week observation
From the text: (Test Example 6) Acute toxicity test
Each of the compounds shown in Examples was orally administered to three ICR male mice per group.

Pylorus ligation ulcer = assay: Pylorus ligation ulcer; type: in vivo, Wistar male rats; details: Rattus norvegicus; oral, 14 hours after pylorus ligation; read-out: Antiulcer activity, Pylorus ligation ulcer, ED50 value
Description: (Test Example 4) Pylorus ligation ulcer
Basically according to the method of Shay et al. (Gastroenterology, vol.5, pp.43-61, 1945), each of the compounds shown in Examples was orally administered to Wistar male rats which have been subjected to fasting of 48 hours (free drinking). After 30 minutes of the compound administration,the pylorus of each rat was ligated.
After 14 hours of standing, the stomach was excised. The length and width of each ulcer developed in the fore-stomach part were measured under a stereoscopic microscope to calculate the ulcer area (length×width). In accordance with the method of Takagi et al. (Japan. J. Pharmacol., vol.24, pp.357-361, 1974), ulcer index was calculated based on the total ulcer area per animal. The dose of each test compound required to inhibit 50% of the ulcer index of the control group was calculated (ED50).

gastric acid secretion = assay: Gastric acid secretion inhibition activity (pylorus-ligated, histamine-stimulated rats); type: in vivo, Sprague-Dawley (SD) male rats; details: Rattus norvegicus; 30 mg/kg oral; pylorus ligated 3 hours later; histamine hydrochloride 30 mg/kg s.c.; total acidity over 3 hours; read-out: Acid secretion inhibition rate (%)
Description: (Test Example 2) Gastric acid secretion inhibition activity
Basically according to the method of Satoh et (Journal of Pharmacology and Experimental Therapeutics, vol.248, pp.806-815, 1988), each of the compounds shown in Examples was orally administered at a dose of 30 mg/kg to Sprague-Dawley (SD) male rats which have been subjected to fasting of 24 hours (free drinking).
After 3 hours of the compound administration, the pylorus of each rat was ligated under urethane anesthesia, and 30 mg of histamine hydrochloride per Kg was administered to the rat by subcutaneous injection. After 3 hours of the ligation, the gastric juice was collected to measure its volume and calculate total acidity (mEqH^+ /3 hours) by sodium hydroxide titration. The inhibition rate (%) was calculated by the following formula in which A represents the total gastric juice acidity of control group rat and B represents the total gastric juice acidity of test compound-administered group rat. [formula]

[1] = target: T1, H^+,K^+ adenosine triphosphatase (Sus scrofa, UniProt P19156); assay: H+,K+ adenosine triphosphatase inhibition (proton pump inhibition); type: biochemical, hog; details: for IC50: H+,K+ ATPase fraction from hog stomach microsomes, ATP substrate, released inorganic phosphorus, read-out: Enzyme inhibition IC50 value (converted)
T1 construct: hog stomach was homogenized and subjected to ultracentrifugation to obtain a microsome fraction; from tissue; host or cells: hog stomach, microsome fraction (discontinuous Ficoll gradient)
Description: Proton pump inhibition was evaluated by the H^+,K^+ adenosine triphosphatase (to be referred to as "H^+,K^+ ATPase" hereinafter)inhibition.
That is, hog stomach was homogenized and subjected to ultracentrifugation to obtain a microsome fraction, and the microsomes were subjected to discontinuous density gradient ultracentrifugation using 0 and 9% Ficoll solutions to obtain a fraction containing H^+,K^+ ATPase. The H^+,K^+ ATPase activity was determined by measuring the released inorganic phosphorus using ATP as the substrate and an inorganic phosphorus measuring reagent PiSET(IATRON) manufactured by IATRON.

Stress ulcer = assay: Stress ulcer; type: in vivo, Wistar male rats; details: Rattus norvegicus; oral, 7 hours stress loading in water bath at 23° C.; read-out: Antiulcer activity, Stress ulcer, ED50 value
Description: (Test Example 3) Stress ulcer
Basically according to the method of Takagi et al. (Japanese Journal of Pharmacology (to be referred to as "Japan. J. Pharmacol." hereinafter), vol.18, pp.9-18, each of the compounds shown in Examples was orally administered to Wistar male rats which have been subjected to fasting of 24 hours (free drinking). Each rat was transferred into a stress cage 30 minutes thereafter and subjected to stress loading by suspending the cage in a water bath controlled at 23° C. to such a depth that the rat was soaked up to its breast.
After 7 hours of the stress loading, the rat was recovered from the water bath to excise the stomach. The length (mm) of each ulcer developed in the stomach was measured under a stereoscopic microscope, and the total length of ulcers per one animal was used as an ulcer index. The dose of each test compound required to inhibit 50% of the ulcer index of the control group was calculated (ED50). The results are shown in Table 3, together with the results of the following pylorus ligation ulcer test.

T1 sequence (P19156 2-1034 limits assumed): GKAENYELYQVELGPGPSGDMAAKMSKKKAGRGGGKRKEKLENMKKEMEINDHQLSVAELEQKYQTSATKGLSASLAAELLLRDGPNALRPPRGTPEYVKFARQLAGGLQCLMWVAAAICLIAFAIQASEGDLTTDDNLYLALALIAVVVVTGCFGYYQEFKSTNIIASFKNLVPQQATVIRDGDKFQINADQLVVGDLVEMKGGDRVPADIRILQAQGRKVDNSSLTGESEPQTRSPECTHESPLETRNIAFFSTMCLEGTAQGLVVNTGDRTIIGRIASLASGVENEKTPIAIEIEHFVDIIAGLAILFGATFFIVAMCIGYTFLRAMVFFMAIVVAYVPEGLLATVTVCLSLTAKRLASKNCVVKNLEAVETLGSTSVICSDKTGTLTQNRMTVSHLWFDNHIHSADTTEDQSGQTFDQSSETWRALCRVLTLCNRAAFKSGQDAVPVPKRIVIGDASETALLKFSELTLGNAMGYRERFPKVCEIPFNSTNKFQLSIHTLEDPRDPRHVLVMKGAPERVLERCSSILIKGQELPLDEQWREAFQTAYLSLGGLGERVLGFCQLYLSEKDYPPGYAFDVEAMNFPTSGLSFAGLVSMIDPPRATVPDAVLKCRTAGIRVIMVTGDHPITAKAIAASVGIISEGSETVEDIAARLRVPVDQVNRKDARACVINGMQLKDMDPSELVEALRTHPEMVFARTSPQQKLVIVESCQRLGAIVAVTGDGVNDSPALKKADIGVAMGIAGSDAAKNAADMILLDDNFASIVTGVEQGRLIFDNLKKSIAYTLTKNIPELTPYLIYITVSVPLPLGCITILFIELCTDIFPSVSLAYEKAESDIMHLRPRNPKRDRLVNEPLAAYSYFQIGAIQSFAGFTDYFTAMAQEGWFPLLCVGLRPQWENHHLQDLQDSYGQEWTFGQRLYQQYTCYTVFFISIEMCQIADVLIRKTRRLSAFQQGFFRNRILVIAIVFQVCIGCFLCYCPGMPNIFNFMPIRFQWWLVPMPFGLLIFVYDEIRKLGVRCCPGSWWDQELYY
T1 sequence (P18434 whole entry partner): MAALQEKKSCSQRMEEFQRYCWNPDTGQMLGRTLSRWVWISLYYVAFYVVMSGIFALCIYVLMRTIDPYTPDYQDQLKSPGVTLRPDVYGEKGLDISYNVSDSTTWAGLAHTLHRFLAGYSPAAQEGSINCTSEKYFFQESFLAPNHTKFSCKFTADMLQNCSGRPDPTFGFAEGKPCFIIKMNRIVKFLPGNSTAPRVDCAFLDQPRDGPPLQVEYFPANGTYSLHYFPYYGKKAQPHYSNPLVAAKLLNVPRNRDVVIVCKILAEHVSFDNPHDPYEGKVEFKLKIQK

| IC50 [1] | SMILES | inhibition in vivo at 30 mg/kg (gastric acid secretion) | other results |
| --- | --- | --- | --- |
|  | COCCCC#Cc1nc(C(=O)OC)c(C(=O)OC)nc1C#CCCCOC [Example 2, 5,6-bis(5-methoxy-1-pentynyl)pyrazine-2,3-dicarboxylic acid dimethyl ester] | 66% | ED50 (Stress ulcer): 60 mg/kg; LD50 at 168 h (Acute toxicity test): > 1000 mg/kg; ED50 (Pylorus ligation ulcer): 66 mg/kg |
|  | CCCOCC#Cc1nc(C(=O)O)c(C(=O)O)nc1C#CCOCCC [Example 5, 5,6-bis(3-n-propoxy-1-propynyl)pyrazine-2,3-dicarboxylic acid] | 61% |  |
| 31.4 µM | CCOC(C)(C)C#Cc1nc2ccccc2nc1C#CC(C)(C)OCC [Example 13, 2,3-bis(3-ethoxy-3-methyl-1-butynyl)quinoxaline] |  |  |
| 124 µM | CC[C@@H](C#Cc1nc2ccccc2nc1C#C[C@H](CC)OCCOC)OCCOC [Example 18, 2,3-bis((S)-3-(2-methoxyethoxy)-1-pentynyl)quinoxaline] |  |  |
|  | CC[C@H](C#Cc1nc2ccccc2nc1C#C[C@@H](CC)OCCOC)OCCOC [Example 19, 2,3-bis((R)-3-(2-methoxyethoxy)-1-pentynyl)quinoxaline] | 28% |  |
| 102 µM | CC[C@@H](C#Cc1nc2ccccc2nc1C#C[C@@H](CC)OCCOC)OCCOC [Example 21, 2-((R)-3-(2-methoxyethoxy)-1-pentynyl)-3-((S)-3-(2-methoxyethoxy)-1-pentynyl)quinoxaline] |  |  |
| 29.6 µM | CCOCCO[C@H](C#Cc1nc2ccccc2nc1C#C[C@H](CC)OCCOCC)CC [Example 22, 2,3-bis((S)-3-(2-ethoxyethoxy)-1-pentynyl)quinoxaline] |  |  |
| 54.7 µM | CCOCCO[C@@H](C#Cc1nc2ccccc2nc1C#C[C@@H](CC)OCCOCC)CC [Example 23, 2,3-bis((R)-3-(2-ethoxyethoxy)-1-pentynyl)quinoxaline] |  |  |
| 34.2 µM | CCOCCO[C@H](C#Cc1nc2ccccc2nc1C#C[C@@H](CC)OCCOCC)CC [Example 25, 2-((R)-3-(2-ethoxyethoxy)-1-pentynyl)-3-((S)-3-(2-ethoxyethoxy)-1-pentynyl)quinoxaline] |  |  |
| 32 µM | COC1(C#Cc2nc3ccccc3nc2C#CC2(OC)CCCC2)CCCC1 [Example 26, 2,3-bis(2-(1-methoxycyclopentyl)ethynyl)quinoxaline] |  |  |
| 215 µM | CCOC(C)C#Cc1nc2ccccc2nc1Cl (stereo not shown) [Example 29, 2-chloro-3-(3-ethoxy-1-butynyl)quinoxaline] |  |  |
|  | COCCOCC#Cc1nc2ccccc2nc1C(C)(C)C [Example 30, 2-t-butyl-3-(3-(2-methoxyethoxy)-1-propynyl)quinoxaline] |  | pIC50 [1]: 4.22 |
| 9.88 µM | CCOC(C)C#Cc1nc2ccc(C(C)=O)cc2nc1C#CC(C)OCC (stereo not shown) [Example 33, 6-acetyl-2,3-bis(3-ethoxy-1-butynyl)quinoxaline] | 23% |  |
| 5.27 µM | COC(=O)c1nc(C#CC(C)OC)c(C#CC(C)OC)nc1C(=O)OC (stereo not shown) [Example 53] |  |  |
| 13.4 µM | COCCOC(C)C#Cc1nc(C(=O)OC)c(C(=O)OC)nc1C#CC(C)OCCOC (stereo not shown) [Example 56] | 80% | ED50 (Stress ulcer): 12 mg/kg; ED50 (Pylorus ligation ulcer): 17 mg/kg |
| 5.15 µM | CCC#Cc1nc(C(=O)OC)c(C(=O)OC)nc1C#CC(C)OC (stereo not shown) [Example 62] | 69% |  |
|  | CCOC(=O)c1nc(C#CCOC)c(C#CCOC)nc1C(=O)OCC [Example 69] | 70% |  |
| 1.7 µM | COC(C)C#Cc1nc(C#N)c(C#N)nc1C#CC(C)OC (stereo not shown) [Example 73] |  |  |
| 1.44 µM | CCCC#Cc1nc(C#N)c(C#N)nc1C#CCCOC [Example 77] | 55% |  |
|  | CCCC#Cc1nc(C#N)c(C#N)nc1C#CCOC [Example 81] | 61% | ED50 (Stress ulcer): 42 mg/kg; LD50 at 168 h (Acute toxicity test): > 1000 mg/kg; ED50 (Pylorus ligation ulcer): 5.2 mg/kg; pIC50 [1]: 5.82 |

| IC50 [1] | SMILES | inhibition in vivo at 30 mg/kg (gastric acid secretion) | other results |
| --- | --- | --- | --- |
| 0.344 µM | CCCCC#Cc1nc(C#N)c(C#N)nc1C#CCCCC [Example 89] |  |  |
| 0.613 µM | CSCCC#Cc1nc(C#N)c(C#N)nc1C#CCCSC [Example 95] |  |  |
|  | CCCCC#Cc1nc(C#N)c(C#N)nc1C(=O)OCC [Example 101] |  | pIC50 [1]: 5.27 |
|  | CCCCC#Cc1nc(C#N)c(C#N)nc1C(F)(F)F [Example 102] |  | pIC50 [1]: 5.40 |
|  | COCC#Cc1nc2ccccc2nc1C#CCOC [Example 107] |  | ED50 (Stress ulcer): 29 mg/kg; ED50 (Pylorus ligation ulcer): 30 mg/kg |
|  | CCOCC#Cc1nc2ccccc2nc1C#CCOCC [Example 108] |  | LD50 at 168 h (Acute toxicity test): > 1000 mg/kg |
| 9.17 µM | COC(C)C#Cc1nc2ccccc2nc1C#CC(C)OC (stereo not shown) [Example 111] |  |  |
|  | CCOCCOC(C)C#Cc1nc2ccccc2nc1C#CC(C)OCCOCC (stereo not shown) [Example 113] |  | LD50 at 168 h (Acute toxicity test): > 1000 mg/kg |
|  | CCOC(C#Cc1nc2ccccc2nc1C#CC(CC)OCC)CC (stereo not shown) [Example 115] |  | LD50 at 168 h (Acute toxicity test): > 1000 mg/kg |
| 87.9 µM | CCC(C#Cc1nc2ccccc2nc1C#CC(CC)OCCC(=O)OC)OCCC(=O)OC (stereo not shown) [Example 123] |  |  |
| 326 µM | CCC(C#Cc1cnc2ccccc2n1)OCCOC (stereo not shown) [Example 127] |  |  |
| 25.3 µM | CCOC(C)C#Cc1nc2ccc(OC)cc2nc1C#CC(C)OCC (stereo not shown) [Example 129] |  |  |
| 20.8 µM | COCCOCC#Cc1nc2ccc(OC)cc2nc1C#CCOCCOC [Example 133] | 44% |  |
| 34 µM | CCOC(C)C#Cc1nc2cccc(OC)c2nc1C#CC(C)OCC (stereo not shown) [Example 140] |  |  |
| 28.3 µM | CCC(C#Cc1nc2cccc(C)c2nc1C#CC(CC)OCCOC)OCCOC (stereo not shown) [Example 144] |  |  |
| 25.1 µM | CCOC(C)C#Cc1nc2cc(OC)c(OC)cc2nc1C#CC(C)OCC (stereo not shown) [Example 145] |  |  |
| 18.6 µM | CCOCCOC(C#Cc1nc2ccc(CO)cc2nc1C#CC(CC)OCCOCC)CC (stereo not shown) [Example 151] |  |  |
| 17.1 µM | CCCOCCOC(C)(C)C#Cc1nc2ccccc2nc1C#CC(C)(C)OCCOCCC [Example 158, 2,3-bis(3-(2-n-propoxyethoxy)-3-methyl-1-butynyl)quinoxaline] |  |  |
| 16.7 µM | CCOCCOC(C)(C)C#Cc1nc2ccc(Cl)cc2nc1C#CC(C)(C)OCCOCC [Example 159, 6-chloro-2,3-bis(3-(2-ethoxyethoxy)-3-methyl-1-butynyl)quinoxaline] |  |  |

| SMILES | IC50 [1] | inhibition in vivo at 30 mg/kg (gastric acid secretion) | other results |
| --- | --- | --- | --- |
| CCCOCC#Cc1nc(C(=O)OC)c(C(=O)OC)nc1C#CCOCCC [Example 1, 5,6-bis(3-n-propoxy-1-propynyl)pyrazine-2,3-dicarboxylic acid dimethyl ester] | 87.5 µM | 50% | LD50 at 168 h (Acute toxicity test): > 1000 mg/kg; ED50 (Pylorus ligation ulcer): 28 mg/kg |
| COCCC#Cc1nc2ccccc2nc1C#CCCOC [Example 12, 2,3-bis(4-methoxy-1-butynyl)quinoxaline] | 279 µM | 41% | ED50 (Stress ulcer): 24 mg/kg; LD50 at 168 h (Acute toxicity test): > 1000 mg/kg |
| COC(=O)c1nc(C#CC(OC)OC)c(C#CC(OC)OC)nc1C(=O)OC [Example 59] | 8.92 µM | 79% | ED50 (Stress ulcer): 18 mg/kg; LD50 at 168 h (Acute toxicity test): > 1000 mg/kg; ED50 (Pylorus ligation ulcer): 21 mg/kg |
